# US10829473B2, “Modulators of the cystic fibrosis transmembrane conductance regulator protein and methods of use” (AbbVie Overseas S.Á.R.L., priority 2017, dated 2020)
# Where two headings read alike, the source gives them in different places. Marks after values point to notes of the source that are not given here.
# Molecular target: T1, F508delCFTR (Homo sapiens, UniProt P13569, DEL508-508)
# T1 construct: expressed in transfected cells; host or cells: CFBE41o- human lung derived epithelial cells (CFBE41o-F508delCFTR-HRP), doxycycline-inducible
# T1 sequence (P13569 with tags, fused parts or gaps DEL508-508): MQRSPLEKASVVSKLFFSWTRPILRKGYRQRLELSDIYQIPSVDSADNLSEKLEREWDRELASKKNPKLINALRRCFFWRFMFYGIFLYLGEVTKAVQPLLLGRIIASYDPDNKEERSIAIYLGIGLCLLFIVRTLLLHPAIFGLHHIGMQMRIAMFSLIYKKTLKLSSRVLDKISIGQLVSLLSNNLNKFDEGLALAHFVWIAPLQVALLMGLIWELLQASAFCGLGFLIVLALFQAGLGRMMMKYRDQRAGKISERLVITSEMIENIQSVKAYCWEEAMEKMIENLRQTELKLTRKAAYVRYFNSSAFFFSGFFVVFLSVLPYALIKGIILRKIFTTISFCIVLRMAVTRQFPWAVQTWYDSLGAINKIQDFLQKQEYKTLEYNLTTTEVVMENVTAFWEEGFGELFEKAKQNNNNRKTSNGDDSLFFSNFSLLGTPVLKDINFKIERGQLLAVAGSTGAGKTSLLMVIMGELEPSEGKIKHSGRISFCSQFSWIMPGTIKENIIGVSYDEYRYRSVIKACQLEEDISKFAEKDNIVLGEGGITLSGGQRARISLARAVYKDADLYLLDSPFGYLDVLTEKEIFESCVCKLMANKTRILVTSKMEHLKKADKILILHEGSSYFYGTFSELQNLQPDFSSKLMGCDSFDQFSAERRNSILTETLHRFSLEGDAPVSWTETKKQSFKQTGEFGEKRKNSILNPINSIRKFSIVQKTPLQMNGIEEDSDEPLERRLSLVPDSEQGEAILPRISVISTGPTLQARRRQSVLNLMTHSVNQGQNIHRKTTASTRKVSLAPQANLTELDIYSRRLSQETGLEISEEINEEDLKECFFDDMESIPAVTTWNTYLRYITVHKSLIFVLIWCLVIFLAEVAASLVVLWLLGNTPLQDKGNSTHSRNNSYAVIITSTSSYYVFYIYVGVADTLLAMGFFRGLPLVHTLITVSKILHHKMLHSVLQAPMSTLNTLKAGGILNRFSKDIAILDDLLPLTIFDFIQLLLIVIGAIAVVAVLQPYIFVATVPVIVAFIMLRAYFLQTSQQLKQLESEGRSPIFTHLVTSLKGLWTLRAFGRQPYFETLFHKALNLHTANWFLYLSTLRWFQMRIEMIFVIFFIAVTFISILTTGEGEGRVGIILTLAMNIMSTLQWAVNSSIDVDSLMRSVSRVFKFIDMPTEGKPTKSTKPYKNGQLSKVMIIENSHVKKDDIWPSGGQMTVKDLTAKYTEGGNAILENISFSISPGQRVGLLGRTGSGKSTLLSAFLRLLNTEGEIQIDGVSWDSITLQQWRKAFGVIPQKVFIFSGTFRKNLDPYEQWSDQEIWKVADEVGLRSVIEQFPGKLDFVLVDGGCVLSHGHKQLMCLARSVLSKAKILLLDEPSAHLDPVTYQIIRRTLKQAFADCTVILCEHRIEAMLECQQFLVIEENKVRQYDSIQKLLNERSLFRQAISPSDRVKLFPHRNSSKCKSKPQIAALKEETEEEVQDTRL
# Test: Cell Surface Expression-Horse Radish Peroxidase (CSE-HRP) Assay;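 for EC50 (with co-corrector): co-corrector chromenyl benzoic acid corrector at 2 or 3 µM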;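 for Maximum % activity (without co-corrector): % of on-plate positive control chromenyl benzoic acid corrector at 2 or 3 µM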
# Assay type: cell-based
# Details: for Emax: read-out: Maximum % activity (without co-corrector)
# Procedure, shortened: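 Corrector compounds were given as 8-point 3-fold series from 20 or 30 μM, with or without a 2 μM co-corrector, for 18-24 h at 33 °C. Surface HRP was read by luminol luminescence as % of positive control; variable-Hill-slope sigmoidal fitting gave EC50 from triplicate plates.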
# [1] = test compound with co-corrector, maximum at any tested concentration
# [2] = test compound with co-corrector, read-out: EC50 (with co-corrector)
# [3] = test compound without co-corrector, maximum at any tested concentration
# [4] = test compound without co-corrector, read-out: EC50 (without co-corrector)
# [5] = test compound alone, without co-corrector, read-out: EC50 (without co-corrector)
# [6] = with co-corrector, maximum at any tested concentration
# [7] = with co-corrector, read-out: EC50 (with co-corrector)
# [8] = without co-corrector, maximum at any tested concentration
# [9] = test compound without co-corrector
Compound,Maximum % activity (with co-corrector) [1],EC50 [2],Emax [3],EC50 [4],EC50 [5],Maximum % activity (with co-corrector) [6],EC50 [7],Emax [8],Maximum % activity (without co-corrector) [8],EC50 (without co-corrector) [9],EC50 (with co-corrector) (test compound with co-corrector)
"O=C(NS(=O)(=O)c1cccc2ncccc12)C1(c2cc(Cl)cnc2N2CCCC2)CC1 [Example GI-35, 1-[5-chloro-2-(pyrrolidin-1-yl)pyridin-3-yl]-N-(quinoline-5-sulfonyl)cyclopropane-1-carboxamide]",+++ (≥350),< 3 µM,> 150%,3 to 10 µM,–,–,–,–,–,–,–
"CC(C)COc1cnc(C2CC2)c(C2(C(=O)NS(=O)(=O)c3cccc4ncccc34)CC2)c1 [Example GI-12, 1-[2-cyclopropyl-5-(2-methylpropoxy)pyridin-3-yl]-N-(quinoline-5-sulfonyl)cyclopropane-1-carboxamide]",–,–,–,–,< 3 µM,+++ (≥350),< 3 µM,> 150%,–,–,–
"COc1cnc(N2CCCC2)c(C2(C(=O)NS(=O)(=O)c3cccc4ncccc34)CC2)c1 [GII-40, 1-[5-methoxy-2-(pyrrolidin-1-yl)pyridin-3-yl]-N-(quinoline-5-sulfonyl)cyclopropane-1-carboxamide]",+++ (≥350),3 to 10 µM,> 150%,3 to 10 µM,–,–,–,–,–,–,–
Cc1ccc(C)c(C2(C(=O)NS(=O)(=O)c3cccc4[nH]ccc34)CC2)c1 [II-80],–,–,–,–,3 to 10 µM,+++ (≥350),< 3 µM,> 150%,–,–,–
COc1cccc(C)c1C1(C(=O)NS(=O)(=O)c2cccc3ccc(C)nc23)CC1 [II-45],–,–,–,–,3 to 10 µM,+++ (≥350),< 3 µM,> 150%,–,–,–
"CC(C)Oc1ncc(N2CCC2)cc1C1(C(=O)NS(=O)(=O)c2cccc3ncccc23)CC1 [Example GI-83, 1-{5-(azetidin-1-yl)-2-[(propan-2-yl)oxy]pyridin-3-yl}-N-(quinoline-5-sulfonyl)cyclopropane-1-carboxamide]",+++ (≥350),< 3 µM,> 150%,3 to 10 µM,–,–,–,–,–,–,–
"CCc1cnc(OC(C)C)c(C2(C(=O)NS(=O)(=O)c3cccc4nc(C)ccc34)CC2)c1 [Example GI-40, 1-{5-ethyl-2-[(propan-2-yl)oxy]pyridin-3-yl}-N-(2-methylquinoline-5-sulfonyl)cyclopropane-1-carboxamide]",+++ (≥350),< 3 µM,> 150%,< 3 µM,–,–,–,–,–,–,–
"COc1ncc(Cl)cc1C1(C(=O)NS(=O)(=O)c2cccc3ccccc23)CC1 [Example GI-3, 1-(5-chloro-2-methoxypyridin-3-yl)-N-(naphthalene-1-sulfonyl)cyclopropane-1-carboxamide]",–,–,–,–,< 3 µM,+++ (≥350),< 3 µM,–,+++ (≥150),–,–
"COCCOc1ncc(C)cc1C1(C(=O)NS(=O)(=O)c2cccc3nc(C)ccc23)CC1 [GII-50, 1-[2-(2-methoxyethoxy)-5-methylpyridin-3-yl]-N-(2-methylquinoline-5-sulfonyl)cyclopropane-1-carboxamide]",+++ (≥350),3 to 10 µM,> 150%,–,–,–,–,–,–,++^a,–
"Cc1ccc2c(S(=O)(=O)NC(=O)C3(c4cc(N5CCC5)cnc4OC(C)C)CC3)cccc2n1 [Example GI-84, 1-{5-(azetidin-1-yl)-2-[(propan-2-yl)oxy]pyridin-3-yl}-N-(2-methylquinoline-5-sulfonyl)cyclopropane-1-carboxamide]",+++ (≥350),< 3 µM,> 150%,3 to 10 µM,–,–,–,–,–,–,–
O=C(NS(=O)(=O)c1cccc2ncccc12)C1(c2ncc(C(F)(F)F)cc2Cl)CC1 [GIII-1],++ (≥150 and <350),–,< 50%,–,–,–,–,–,–,++^a,++^a
COc1ccc(CO)cc1C1(C(=O)NS(=O)(=O)c2cccc3ncccc23)CC1 [II-48],–,–,–,–,> 10 µM,++ (≥150 and <350),3 to 10 µM,< 50%,–,–,–
"Cc1cnc(OCC(C)C)c(C2(C(=O)NS(=O)(=O)c3cccc4nc(N)ccc34)CC2)c1 [Example I-96, N-(2-aminoquinoline-5-sulfonyl)-1-[5-methyl-2-(2-methylpropoxy)pyridin-3-yl]cyclopropane-1-carboxamide]",–,–,–,–,< 3 µM,+++ (≥350),< 3 µM,> 150%,–,–,–
"CC(C)OC1CCN(c2ncc(C3CCC3)cc2C2(C(=O)NS(=O)(=O)c3cccc4ncccc34)CC2)CC1 [Example GI-105, 1-(5-cyclobutyl-2-{4-[(propan-2-yl)oxy]piperidin-1-yl}pyridin-3-yl)-N-(quinoline-5-sulfonyl)cyclopropane-1-carboxamide]",+++ (≥350),< 3 µM,> 150%,< 3 µM,–,–,–,–,–,–,–
"CC(C)(C)OC(=O)N1CCC(C(=O)NS(=O)(=O)c2cccc3ccccc23)(c2ccc(F)cc2)CC1 [Example III-89, tert-butyl 4-(4-fluorophenyl)-4-[(naphthalene-1-sulfonyl)carbamoyl]piperidine-1-carboxylate]",–,–,–,–,3 to 10 µM,++ (≥150 and <350),< 3 µM,< 50%,–,–,–
"COc1cc(C)c(C2(C(=O)NS(=O)(=O)c3cccc4ccccc34)CC2)cn1 [GII-22, 1-(6-methoxy-4-methylpyridin-3-yl)-N-(naphthalene-1-sulfonyl)cyclopropane-1-carboxamide]",+++ (≥350),3 to 10 µM,> 150%,3 to 10 µM,–,–,–,–,–,–,–
"CC(=O)N1CCc2cc(S(=O)(=O)NC(=O)C3(c4cccc(Cl)c4)CC3)ccc21 [Example III-76, N-(1-acetyl-2,3-dihydro-1H-indole-5-sulfonyl)-1-(3-chlorophenyl)cyclopropane-1-carboxamide]",–,–,–,–,> 10 µM,+ (<150),> 10 µM,< 50%,–,–,–
"CCCS(=O)(=O)NC(=O)C1(c2ccc(Cl)cc2Cl)CC1 [Example III-107, 1-(2,4-dichlorophenyl)-N-(propane-1-sulfonyl)cyclopropane-1-carboxamide]",–,–,–,–,> 10 µM,+ (<150),> 10 µM,< 50%,–,–,–
"CCc1ccc(OC(C)C)c(C2(C(=O)NS(=O)(=O)c3cccc4nc(C)ccc34)CC2)n1 [Example GI-54, 1-{6-ethyl-3-[(propan-2-yl)oxy]pyridin-2-yl}-N-(2-methylquinoline-5-sulfonyl)cyclopropane-1-carboxamide]",+++ (≥350),3 to 10 µM,> 150%,3 to 10 µM,–,–,–,–,–,–,–
"COc1nc2ccccc2cc1C1(C(=O)NS(=O)(=O)c2cccc3nc(C)ccc23)CC1 [Example I-75, 1-(2-methoxyquinolin-3-yl)-N-(2-methylquinoline-5-sulfonyl)cyclopropane-1-carboxamide]",–,–,–,–,3 to 10 µM,+++ (≥350),< 3 µM,> 150%,–,–,–
COc1cccc(C)c1C1(C(=O)NS(=O)(=O)c2cccc3nc(C)ccc23)CC1 [II-50],–,–,–,–,3 to 10 µM,+++ (≥350),< 3 µM,> 150%,–,–,–
CC(C)COc1ncc(N(C)C)cc1C1(C(=O)NS(=O)(=O)c2cccc3ncccc23)CC1 [II-112],–,–,–,–,< 3 µM,+++ (≥350),< 3 µM,> 150%,–,–,–
"CC(C)Oc1ncc(C2CCC2)cc1C1(C(=O)NS(=O)(=O)c2cccc3c2CCCN3)CC1 [GII-25, 1-{5-cyclobutyl-2-[(propan-2-yl)oxy]pyridin-3-yl}-N-(1,2,3,4-tetrahydroquinoline-5-sulfonyl)cyclopropane-1-carboxamide]",+++ (≥350),3 to 10 µM,> 150%,3 to 10 µM,–,–,–,–,–,–,–
"CCOc1ccc(C(C)(C)COC)cc1C1(C(=O)NS(=O)(=O)c2cccc3ncccc23)CC1 [Example I-101, 1-[2-ethoxy-5-(1-methoxy-2-methylpropan-2-yl)phenyl]-N-(quinoline-5-sulfonyl)cyclopropane-1-carboxamide]",–,–,–,–,< 3 µM,+++ (≥350),< 3 µM,> 150%,–,–,–
"COc1ccc(C2(C(=O)NS(=O)(=O)c3cccc4ccccc34)CCCC2)cc1OC [Example III-90, 1-(3,4-dimethoxyphenyl)-N-(naphthalene-1-sulfonyl)cyclopentane-1-carboxamide]",–,–,–,–,> 10 µM,+ (<150),> 10 µM,< 50%,–,–,–
"CCOc1ccc(OC)c(C2(C(=O)NS(=O)(=O)c3cccc4nc(C)ccc34)CC2)c1 [Example I-69, 1-(5-ethoxy-2-methoxyphenyl)-N-(2-methylquinoline-5-sulfonyl)cyclopropane-1-carboxamide]",–,–,–,–,< 3 µM,+++ (≥350),< 3 µM,> 150%,–,–,–
"Cc1cnc(OCC(C)C)c(C2(C(=O)NS(=O)(=O)c3cccc4[nH]ncc34)CC2)c1 [Example III-130, N-(1H-indazole-4-sulfonyl)-1-[5-methyl-2-(2-methylpropoxy)pyridin-3-yl]cyclopropane-1-carboxamide]",–,–,–,–,3 to 10 µM,+++ (≥350),< 3 µM,> 150%,–,–,–
COc1c(C)cccc1C1(C(=O)NS(=O)(=O)c2cccc3ncccc23)CC1 [II-64],–,–,–,–,3 to 10 µM,+++ (≥350),< 3 µM,> 150%,–,–,–
